Reference: patent US20240376099A1, “COMPOUNDS AND COMPOSITIONS AS INHIBITORS OF ENDOSOMAL TOLL-LIKE RECEPTORS” (Novartis AG, priority 2016, published 2024)
pIC50: −log10 of the molar value.

biological target: T1, TLR8 (Homo sapiens, UniProt Q9NR97); test: huPBMC TLR8 Antagonist IL-6 TR-FRET Assay; type: cell-based; set-up: Fresh blood was collected from normal human donors; endogenous in cells; host or cells: human PBMCs from fresh donor blood; settings: human PBMCs stimulated with ssRNA40 1 μg/ml (DOTAP), 14-16 hrs; IL-6 TR-FRET read-out
T1 sequence (Q9NR97 27-1041): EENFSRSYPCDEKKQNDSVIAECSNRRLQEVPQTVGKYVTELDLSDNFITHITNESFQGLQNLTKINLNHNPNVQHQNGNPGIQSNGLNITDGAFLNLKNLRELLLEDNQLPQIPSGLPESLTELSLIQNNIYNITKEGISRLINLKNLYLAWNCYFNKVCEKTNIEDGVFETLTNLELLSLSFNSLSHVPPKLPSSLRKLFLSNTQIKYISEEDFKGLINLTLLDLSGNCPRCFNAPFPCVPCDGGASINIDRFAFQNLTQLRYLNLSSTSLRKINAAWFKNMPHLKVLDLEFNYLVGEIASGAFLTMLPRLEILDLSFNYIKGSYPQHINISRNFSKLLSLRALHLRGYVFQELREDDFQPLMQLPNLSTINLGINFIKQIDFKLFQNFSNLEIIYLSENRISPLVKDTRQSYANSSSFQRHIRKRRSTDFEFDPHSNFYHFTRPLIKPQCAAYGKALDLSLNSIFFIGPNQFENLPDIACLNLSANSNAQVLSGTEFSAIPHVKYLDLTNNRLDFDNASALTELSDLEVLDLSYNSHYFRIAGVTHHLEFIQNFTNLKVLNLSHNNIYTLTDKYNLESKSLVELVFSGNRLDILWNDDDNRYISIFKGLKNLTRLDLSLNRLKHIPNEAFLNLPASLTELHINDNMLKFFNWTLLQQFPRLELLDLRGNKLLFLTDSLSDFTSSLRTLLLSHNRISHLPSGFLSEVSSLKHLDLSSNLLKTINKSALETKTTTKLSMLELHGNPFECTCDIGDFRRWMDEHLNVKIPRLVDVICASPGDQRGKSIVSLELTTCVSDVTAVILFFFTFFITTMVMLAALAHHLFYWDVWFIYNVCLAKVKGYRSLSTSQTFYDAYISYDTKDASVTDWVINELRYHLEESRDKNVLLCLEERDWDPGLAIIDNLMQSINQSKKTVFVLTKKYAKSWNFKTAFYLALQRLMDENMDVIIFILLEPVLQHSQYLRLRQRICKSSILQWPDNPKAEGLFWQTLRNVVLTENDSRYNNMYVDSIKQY
Method in brief: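 Human PBMCs from fresh donor blood (150,000 cells/well) stimulated 14–16 h at 37 °C with DOTAP-complexed ssRNA40 (final 1 μg/ml for TLR8, 10 μg/mL for TLR7) or ODN2216 (final 0.3 μM, TLR9), 0.25% DMSO, ten-point 1/3 compound dilutions. Supernatant IL-6 read by HTRF (TLR8); IFNα by IFNα2b AlphaLISA (TLR7/TLR9).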

Compared with CCNCC(=O)NC12CCC(Cn3nc(C)c4c3CCN(c3nc(C)nc5[nH]ncc35)C4)(CC1)CC2 [compound 20, 2-(ethylamino)-N-(4-((3-methyl-5-(6-methyl-1H-pyrazolo[3,4-d]pyrimidin-4-yl)-4,5,6,7-tetrahydro-1H-pyrazolo[4,3-c]pyridin-1-yl)methyl)bicyclo[2.2.2]octan-1-yl)acetamide], CCNCC(=O)NC12CCC(Cn3nc(C)c4c3CCN(c3nc(C)nc5c(C)nn(C)c35)C4)(CC1)CC2 [compound 22, 2-(ethylamino)-N-(4-((3-methyl-5-(1,3,5-trimethyl-1H-pyrazolo[4,3-c]pyrimidin-7-yl)-4,5,6,7-tetrahydro-1H-pyrazolo[4,3-c]pyridin-1-yl)methyl)bicyclo[2.2.2]octan-1-yl)acetamide] is 0.34 log units higher in pIC50: 7.51 for the first, 7.85 for the second.

Compared with Cc1nc(N2CCc3c(c(C)nn3CC34CCC(N5CCOCC5)(CC3)CC4)C2)c2cn[nH]c2n1 [compound 21, 4-(4-((3-methyl-5-(6-methyl-1H-pyrazolo[3,4-d]pyrimidin-4-yl)-4,5,6,7-tetrahydro-1H-pyrazolo[4,3-c]pyridin-1-yl)methyl)bicyclo[2.2.2]octan-1-yl)morpholine], Cc1nc(N2CCc3c(c(C)nn3CC34CCC(N5CCCC5)(CC3)CC4)C2)c2cn[nH]c2n1 [compound 30, 6-methyl-4-(3-methyl-1-((4-(pyrrolidin-1-yl)bicyclo[2.2.2]octan-1-yl)methyl)-6,7-dihydro-1H-pyrazolo[4,3-c]pyridin-5(4H)-yl)-1H-pyrazolo[3,4-d]pyrimidine] is 0.95 log units lower in pIC50: 7.44 for the first, 6.49 for the second.

Going from Cc1nc(N2CCc3c(c(C)nn3CC34CCC(NCC5COC5)(CC3)CC4)C2)c2c(n1)c(C)nn2C [compound 23, 4-((3-methyl-5-(1,3,5-trimethyl-1H-pyrazolo[4,3-c]pyrimidin-7-yl)-4,5,6,7-tetrahydro-1H-pyrazolo[4,3-c]pyridin-1-yl)methyl)-N-(oxetan-3-ylmethyl)bicyclo[2.2.2]octan-1-amine] to Cc1nc(N2CCc3c(c(C)nn3CC34CCC(NCC5(CO)COC5)(CC3)CC4)C2)c2c(n1)c(C)nn2C [compound 31, (3-(((4-((3-methyl-5-(1,3,5-trimethyl-1H-pyrazolo[4,3-d]pyrimidin-7-yl)-4,5,6,7-tetrahydro-1H-pyrazolo[4,3-c]pyridin-1-yl)methyl)bicyclo[2.2.2]octan-1-yl)amino)methyl)oxetan-3-yl)methanol], the pIC50 rises from 6.43 to 7.57 (1.14 log units). The second is the more potent here.

Cc1nc(N2CCc3c(c(C)nn3CC34CCC(NC(=O)CCN(C)C)(CC3)CC4)C2)c2c(n1)c(C)nn2C [compound 24, 3-(dimethyalmino)-N-(4-((3-methyl-5-(1,3,5-trimethyl-1H-pyrazolo[4,3-d]pyrimidin-7-yl)-4,5,6,7-tetrahydro-1H-pyrazolo[4,3-c]pyridin-1-yl)methyl)bicyclo[2.2.2]octan-1-yl)propanamide] and Cc1nc(N2CCc3c(c(C)nn3CC34CCC(NC5CCC5)(CC3)CC4)C2)c2c(n1)c(C)nn2C [compound 27, N-cyclobutyl-4-((3-methyl-5-(1,3,5-trimethyl-1H-pyrazolo[4,3-d]pyrimidin-7-yl)-4,5,6,7-tetrahydro-1H-pyrazolo[4,3-c]pyridin-1-yl)methyl)bicyclo[2.2.2]octan-1-amine] are within 0.2 log units of each other in pIC50: 8.00 for the first, 7.85 for the second.

Compared with Cc1nc(N2CCc3c(c(C)nn3CC34CCC(N5CCOCC5)(CC3)CC4)C2)c2c(n1)c(C)nn2C [compound 25, 4-(4-((3-methyl-5-(1,3,5-trimethyl-1H-pyrazolo[4,3-d]pyrimidin-7-yl)-4,5,6,7-tetrahydro-1H-pyrazolo[4,3-c]pyridin-1-yl)methyl)bicyclo[2.2.2]octan-1-yl)morpholine], Cc1nc(N2CCc3c(c(C)nn3CC34CCC(N5CCCCC5)(CC3)CC4)C2)c2c(n1)c(C)nn2C [compound 38, 1,3,5-trimethyl-7-(3-methyl-1-((4-(piperidin-1-yl)bicyclo[2.2.2]octan-1-yl)methyl)-6,7-dihydro-1H-pyrazolo[4,3-c]pyridin-5(4H)-yl)-1H-pyrazolo[4,3-d]pyrimidine] is 0.26 log units lower in pIC50: 7.77 for the first, 7.51 for the second. The first is the more potent here.

Going from Cc1nc(N2CCc3c(c(C)nn3CC34CCC(N(C5CCC5)C5CCC5)(CC3)CC4)C2)c2c(n1)c(C)nn2C [compound 28, N,N-dicyclobutyl-4-((3-methyl-5-(1,3,5-trimethyl-1H-pyrazolo[4,3-d]pyrimidin-7-yl)-4,5,6,7-tetrahydro-1H-pyrazolo[4,3-c]pyridin-1-yl)methyl)bicyclo[2.2.2]octan-1-amine] to [2H]C([2H])([2H])N(C([2H])([2H])[2H])C12CCC(Cn3nc(C)c4c3CCN(c3nc(C)nc5c(C)nn(C)c35)C4)(CC1)CC2 [compound 40, 4-((3-methyl-5-(1,3,5-trimethyl-1H-pyrazolo[4,3-d]pyrimidin-7-yl)-4,5,6,7-tetrahydro-1H-pyrazolo[4,3-c]pyridin-1-yl)methyl)-N,N-bis(trideuteromethyl)bicyclo[2.2.2]octan-1-amine], the pIC50 rises from 6.19 to 6.50 (0.31 log units). The second is the more potent here.

Compared with Cc1nc(N2CCc3c(c(C)nn3CC34CCC(N5CCCCC5)(CC3)CC4)C2)c2cn[nH]c2n1 [compound 29, 6-methyl-4-(3-methyl-1-((4-(piperidin-1-yl)bicyclo[2.2.2]octan-1-yl)methyl)-6,7-dihydro-1H-pyrazolo[4,3-c]pyridin-5(4H)-yl)-1H-pyrazolo[3,4-d]pyrimidine], Cc1nc(N2CCc3c(c(C)nn3CC34CCC(N5CCCCC5)(CC3)CC4)C2)c2cnn(C)c2n1 [compound 39, 1,6-dimethyl-4-(3-methyl-1-((4-(piperidin-1-yl)bicyclo[2.2.2]octan-1-yl)methyl)-6,7-dihydro-1H-pyrazolo[4,3-c]pyridin-5(4H)-yl)-1H-pyrazolo[3,4-c]pyrimidine] is 0.88 log units lower in pIC50: 7.80 for the first, 6.92 for the second.

First: Cc1nc(N2CCc3c(c(C)nn3CC34CCC(NC(=O)[C@@H]5COCCN5)(CC3)CC4)C2)c2c(n1)c(C)nn2C [compound 33, (S)-N-(4-((3-methyl-5-(1,3,5-trimethyl-1H-pyrazolo[4,3-d]pyrimidin-7-yl)-4,5,6,7-tetrahydro-1H-pyrazolo[4,3-c]pyridin-1-yl)methyl)bicyclo[2.2.2]octan-1-yl)morpholine-3-carboxamide]
Second: Cc1nc(N2CCc3c(c(C)nn3CC34CCC(NC(=O)[C@@H]5CNCCO5)(CC3)CC4)C2)c2c(n1)c(C)nn2C [compound 34, (S)-N-(4-((3-methyl-5-(1,3,5-trimethyl-1H-pyrazolo[4,3-d]pyrimidin-7-yl)-4,5,6,7-tetrahydro-1H-pyrazolo[4,3-c]pyridin-1-yl)methyl)bicyclo[2.2.2]octan-1-yl)morpholine-2-carboxamide]
The pIC50 of the first is 0.40 log units lower: 7.14 for the first, 7.54 for the second.

Cc1nc(N2CCc3c(c(C)nn3CC34CCC(NC(=O)[C@H]5CNCCO5)(CC3)CC4)C2)c2c(n1)c(C)nn2C [compound 36, (R)-N-(4-((3-methyl-5-(1,3,5-trimethyl-1H-pyrazolo[4,3-d]pyrimidin-7-yl)-4,5,6,7-tetrahydro-1H-pyrazolo[4,3-c]pyridin-1-yl)methyl)bicyclo[2.2.2]octan-1-yl)morpholine-2-carboxamide] and Cc1nc(N2CCc3c(c(C)nn3CC34CCC(N5CCOCC5)(CC3)CC4)C2)c2c(C)noc2n1 [compound 37, 3,6-dimethyl-4-(3-methyl-1-((4-morpholinobicyclo[2.2.2]octan-1-yl)methyl)-6,7-dihydro-1H-pyrazolo[4,3-c]pyridin-5(4H)-yl)isoxazolo[5,4-d]pyrimidine] are the same in pIC50: 7.10 for the first, 7.10 for the second.

Going from Cc1nn(CC23CCC(N)(CC2)CC3)c2c1CN(c1ccnc3[nH]ncc13)CC2 [compound 41, 4-((3-methyl-5-(1H-pyrazolo[3,4-b]pyridin-4-yl)-4,5,6,7-tetrahydro-1H-pyrazolo[4,3-c]pyridin-1-yl)methyl)bicyclo[2.2.2]octan-1-amine] to Cc1c2c(nn1CC13CCC(N)(CC1)CC3)CCN(c1ccnc3[nH]ncc13)C2 [compound 42, 4-((3-methyl-5-(1H-pyrazolo[3,4-b]pyridin-4-yl)-4,5,6,7-tetrahydro-2H-pyrazolo[4,3-c]pyridin-2-yl)methyl)bicyclo[2.2.2]octan-1-amine], the pIC50 falls from 5.34 to under 5.00.

Cc1cc(N2CCc3c(c(C)nn3CC34CCC(N)(CC3)C4)C2)c2cnn(C)c2n1 [compound 44, 4-((5-(1,6-dimethyl-1H-pyrazolo[3,4-b]pyridin-4-yl)-3-methyl-4,5,6,7-tetrahydro-1H-pyrazolo[4,3-c]pyridin-1-yl)methyl)bicyclo[2.2.1]heptan-1-amine] gave a pIC50 of 6.06.
